pIC50: −log10 of the molar value.
molecular target: human Nav 1.5 (Homo sapiens (Human), UniProt Q14524); assay: Nav 1.5 IonWorks Quattro (IWQ) in vitro assay; type: cell-based; settings: human, HEK 293 cells stably transfected with human Nav 1.5; in-vitro Nav 1.5 IWQ data; read-out: NAV 1.5 IWQ (IC50)
Sequence (Q14524 whole entry): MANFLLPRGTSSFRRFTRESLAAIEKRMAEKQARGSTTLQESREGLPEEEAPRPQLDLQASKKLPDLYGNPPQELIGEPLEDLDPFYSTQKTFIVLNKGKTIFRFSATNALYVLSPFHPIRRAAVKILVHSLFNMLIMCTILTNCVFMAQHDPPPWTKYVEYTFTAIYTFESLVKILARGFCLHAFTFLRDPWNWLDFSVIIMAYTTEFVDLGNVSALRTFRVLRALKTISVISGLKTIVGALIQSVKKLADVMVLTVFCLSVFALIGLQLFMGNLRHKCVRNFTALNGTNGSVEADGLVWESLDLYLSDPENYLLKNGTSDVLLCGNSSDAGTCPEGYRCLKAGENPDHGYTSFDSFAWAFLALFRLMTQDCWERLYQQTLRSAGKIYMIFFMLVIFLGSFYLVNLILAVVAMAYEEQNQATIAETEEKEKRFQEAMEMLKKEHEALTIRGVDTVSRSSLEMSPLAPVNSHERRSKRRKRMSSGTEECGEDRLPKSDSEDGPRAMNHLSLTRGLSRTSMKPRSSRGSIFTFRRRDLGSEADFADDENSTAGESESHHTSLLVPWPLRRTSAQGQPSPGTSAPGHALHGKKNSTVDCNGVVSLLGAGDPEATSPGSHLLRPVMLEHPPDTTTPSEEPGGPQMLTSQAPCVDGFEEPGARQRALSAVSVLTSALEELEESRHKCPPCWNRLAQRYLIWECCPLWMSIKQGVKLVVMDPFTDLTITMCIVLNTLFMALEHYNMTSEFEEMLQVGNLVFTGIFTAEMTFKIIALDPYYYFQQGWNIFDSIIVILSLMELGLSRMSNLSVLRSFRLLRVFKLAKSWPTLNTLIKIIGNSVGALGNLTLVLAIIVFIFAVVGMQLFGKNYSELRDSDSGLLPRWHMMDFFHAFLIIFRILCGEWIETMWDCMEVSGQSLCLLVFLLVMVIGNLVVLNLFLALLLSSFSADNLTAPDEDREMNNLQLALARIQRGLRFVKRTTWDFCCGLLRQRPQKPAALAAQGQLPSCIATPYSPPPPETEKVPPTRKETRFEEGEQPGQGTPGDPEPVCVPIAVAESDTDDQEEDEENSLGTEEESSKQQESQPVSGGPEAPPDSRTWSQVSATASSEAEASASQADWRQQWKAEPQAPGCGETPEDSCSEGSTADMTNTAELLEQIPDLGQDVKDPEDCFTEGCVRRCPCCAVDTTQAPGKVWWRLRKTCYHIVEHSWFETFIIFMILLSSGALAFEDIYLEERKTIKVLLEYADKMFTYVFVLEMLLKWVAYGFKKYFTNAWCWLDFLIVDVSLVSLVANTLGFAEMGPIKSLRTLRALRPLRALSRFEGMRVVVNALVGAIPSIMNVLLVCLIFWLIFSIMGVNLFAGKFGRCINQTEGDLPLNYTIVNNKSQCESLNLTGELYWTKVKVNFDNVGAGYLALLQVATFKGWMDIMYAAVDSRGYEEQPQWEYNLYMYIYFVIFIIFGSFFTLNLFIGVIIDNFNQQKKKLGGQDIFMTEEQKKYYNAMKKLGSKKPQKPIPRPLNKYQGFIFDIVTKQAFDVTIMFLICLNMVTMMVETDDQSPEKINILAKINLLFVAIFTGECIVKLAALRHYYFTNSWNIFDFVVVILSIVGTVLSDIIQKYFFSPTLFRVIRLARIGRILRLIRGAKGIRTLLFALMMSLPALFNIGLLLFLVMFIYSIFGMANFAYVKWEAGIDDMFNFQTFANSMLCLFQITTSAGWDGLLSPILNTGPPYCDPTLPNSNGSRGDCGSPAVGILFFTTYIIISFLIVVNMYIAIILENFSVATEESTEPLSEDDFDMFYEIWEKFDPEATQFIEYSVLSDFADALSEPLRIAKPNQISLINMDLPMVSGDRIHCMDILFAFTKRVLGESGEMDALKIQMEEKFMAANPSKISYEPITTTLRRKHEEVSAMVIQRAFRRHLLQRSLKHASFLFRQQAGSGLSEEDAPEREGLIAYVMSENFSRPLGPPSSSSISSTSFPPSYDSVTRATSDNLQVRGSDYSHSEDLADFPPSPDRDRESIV

Row | SMILES | pIC50
1 | C[C@](Oc1ncc(-c2cc(F)c(C(=O)NS(C)(=O)=O)cc2F)cc1Cl)(c1ccccc1)C(F)(F)F (single isomer, unassigned) [Example 805] | < 5.52
2 | C[C@@](Oc1ncc(-c2cc(F)c(C(=O)NS(C)(=O)=O)cc2F)cc1Cl)(c1ccccc1)C(F)(F)F (single isomer, unassigned) [Example 804] | < 5.52

same assay, conditions: in-vitro Nav 1.5 IWQ data; read-out: NAV 1.5 IWQ (IC50)

Row | SMILES | pIC50
3 | COc1cc(C(=O)NS(C)(=O)=O)c(F)cc1-c1cnc(OCc2nc3ccccc3s2)c(Cl)c1 [Example 708, 4-(6-(1,3-benzothiazol-2-ylmethoxy)-5-chloro-3-pyridinyl)-2-fluoro-5-methoxy-N-(methylsulfonyl)benzamide] | < 5.52
4 | Cc1cc(C(=O)NS(C)(=O)=O)c(F)cc1-c1cnc(O[C@@H](C)c2nc3ccccc3s2)c(Cl)c1 [Example 710, 4-(6-((1S)-1-(1,3-benzothiazol-2-yl)ethoxy)-5-chloro-3-pyridinyl)-2-fluoro-5-methyl-N-(methylsulfonyl)benzamide] | < 5.52

same assay, conditions: read-out: NAV 1.5 IWQ IC50

Row | SMILES | pIC50
5 | Cc1cc(C(=O)NS(C)(=O)=O)c(F)cc1-c1cnc(Oc2ccccc2-c2ccccc2)c(Cl)c1 [Example 612, 4-(6-(2-biphenylyloxy)-5-chloro-3-pyridinyl)-2-fluoro-5-methyl-N-(methylsulfonyl)benzamide] | < 5.52
6 | Cc1ccc(Cl)cc1Oc1ncc(-c2cc(F)c(C(=O)NS(C)(=O)=O)cc2C)cc1Cl [Example 616, 4-(5-chloro-6-(5-chloro-2-methylphenoxy)-3-pyridinyl)-2-fluoro-5-methyl-N-(methylsulfonyl)benzamide] | < 5.52
7 | Cc1cc(C(=O)NS(C)(=O)=O)c(F)cc1-c1cnc(O[C@H](C)c2cc(Cl)ccc2Cl)c(Cl)c1 [Example 673, 4-(5-chloro-6-((1R)-1-(2,5-dichlorophenyl)ethoxy)-3-pyridinyl)-2-fluoro-5-methyl-N-(methylsulfonyl)benzamide] | < 5.00

molecular target: human Nav1.7 (Homo sapiens (Human), UniProt Q15858); assay: Nav 1.7 in vitro PatchXpress (PX) assay; type: cell-based; settings: not given
Sequence (Q15858 whole entry): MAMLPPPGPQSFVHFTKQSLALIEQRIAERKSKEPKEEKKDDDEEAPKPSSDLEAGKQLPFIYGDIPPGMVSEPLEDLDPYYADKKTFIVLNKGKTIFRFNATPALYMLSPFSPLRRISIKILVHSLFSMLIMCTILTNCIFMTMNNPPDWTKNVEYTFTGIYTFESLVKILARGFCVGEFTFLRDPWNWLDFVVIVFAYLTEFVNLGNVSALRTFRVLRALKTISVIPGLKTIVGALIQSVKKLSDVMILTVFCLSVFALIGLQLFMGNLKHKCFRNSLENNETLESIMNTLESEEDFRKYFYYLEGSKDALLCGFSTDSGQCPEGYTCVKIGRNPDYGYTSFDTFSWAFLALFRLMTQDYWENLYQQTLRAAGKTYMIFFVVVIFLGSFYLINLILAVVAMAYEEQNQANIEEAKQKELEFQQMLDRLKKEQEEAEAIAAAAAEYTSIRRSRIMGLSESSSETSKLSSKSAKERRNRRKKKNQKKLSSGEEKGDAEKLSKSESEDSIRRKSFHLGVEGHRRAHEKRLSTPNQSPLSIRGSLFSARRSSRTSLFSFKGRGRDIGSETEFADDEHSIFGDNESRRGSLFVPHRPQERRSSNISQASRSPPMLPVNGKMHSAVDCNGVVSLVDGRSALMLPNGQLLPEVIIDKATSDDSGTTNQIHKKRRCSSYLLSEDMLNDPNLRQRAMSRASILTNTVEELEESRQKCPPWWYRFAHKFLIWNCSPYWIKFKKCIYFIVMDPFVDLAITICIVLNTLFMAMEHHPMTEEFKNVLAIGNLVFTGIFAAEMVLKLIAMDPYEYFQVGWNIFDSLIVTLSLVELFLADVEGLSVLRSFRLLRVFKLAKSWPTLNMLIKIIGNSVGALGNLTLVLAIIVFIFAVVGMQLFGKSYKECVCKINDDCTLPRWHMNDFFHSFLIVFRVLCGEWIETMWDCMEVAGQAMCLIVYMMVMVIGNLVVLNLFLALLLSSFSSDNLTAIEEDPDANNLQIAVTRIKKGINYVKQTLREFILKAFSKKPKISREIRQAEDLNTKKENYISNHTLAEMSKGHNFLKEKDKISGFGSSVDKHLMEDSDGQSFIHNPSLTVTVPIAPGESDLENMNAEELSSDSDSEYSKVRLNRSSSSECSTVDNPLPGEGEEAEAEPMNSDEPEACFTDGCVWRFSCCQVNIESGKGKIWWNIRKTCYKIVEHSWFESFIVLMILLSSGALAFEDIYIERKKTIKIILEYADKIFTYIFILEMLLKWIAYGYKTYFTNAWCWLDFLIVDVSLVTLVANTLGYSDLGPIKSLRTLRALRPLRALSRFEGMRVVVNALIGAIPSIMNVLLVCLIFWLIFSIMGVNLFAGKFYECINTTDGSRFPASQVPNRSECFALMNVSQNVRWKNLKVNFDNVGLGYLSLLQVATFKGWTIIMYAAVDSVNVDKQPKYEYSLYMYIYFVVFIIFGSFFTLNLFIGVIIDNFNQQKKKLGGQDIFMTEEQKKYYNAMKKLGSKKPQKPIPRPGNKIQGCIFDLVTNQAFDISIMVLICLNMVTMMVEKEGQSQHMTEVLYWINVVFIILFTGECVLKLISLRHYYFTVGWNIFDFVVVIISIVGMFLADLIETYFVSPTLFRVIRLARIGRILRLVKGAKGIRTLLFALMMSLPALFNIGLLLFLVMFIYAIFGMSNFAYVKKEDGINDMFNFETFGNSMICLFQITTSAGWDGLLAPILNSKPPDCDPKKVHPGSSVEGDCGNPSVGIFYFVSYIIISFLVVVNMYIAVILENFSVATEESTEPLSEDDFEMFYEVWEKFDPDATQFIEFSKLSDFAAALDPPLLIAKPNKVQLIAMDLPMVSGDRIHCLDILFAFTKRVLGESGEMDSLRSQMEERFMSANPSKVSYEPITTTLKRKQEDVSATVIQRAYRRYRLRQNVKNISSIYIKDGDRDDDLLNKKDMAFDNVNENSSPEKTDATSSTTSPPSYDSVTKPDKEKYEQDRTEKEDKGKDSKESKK

Row | SMILES | pIC50
8 | Cc1cc(C(=O)NS(C)(=O)=O)c(F)cc1-c1cnc(Oc2ccccc2-c2ccccc2)c(Cl)c1 [Example 612, 4-(6-(2-biphenylyloxy)-5-chloro-3-pyridinyl)-2-fluoro-5-methyl-N-(methylsulfonyl)benzamide] | 7.05
9 | Cc1ccc(Cl)cc1Oc1ncc(-c2cc(F)c(C(=O)NS(C)(=O)=O)cc2C)cc1Cl [Example 616, 4-(5-chloro-6-(5-chloro-2-methylphenoxy)-3-pyridinyl)-2-fluoro-5-methyl-N-(methylsulfonyl)benzamide] | 7.15
10 | C[C@@H](Oc1ncc(-c2ccc(C(=O)NS(C)(=O)=O)cc2OC(F)F)cc1Cl)c1ccccc1 [Example 455, 4-(5-chloro-6-((1R)-1-phenylethoxy)-3-pyridinyl)-3-(difluoromethoxy)-N-(methylsulfonyl)benzamide] | 7.24
11 | Cc1cc(C(=O)NS(C)(=O)=O)c(F)cc1-c1cnc(O[C@H](C)c2ccccc2C(F)(F)F)c(Cl)c1 [Example 688, 4-(5-chloro-6-((1R)-1-(2-(trifluoromethyl)phenyl)ethoxy)-3-pyridinyl)-2-fluoro-5-methyl-N-(methylsulfonyl)benzamide, 4-(5-chloro-6-((1S)-1-(2-(trifluoromethyl)phenyl)ethoxy)-3-pyridinyl)-2-fluoro-5-methyl-N-(methylsulfonyl)benzamide] | 7.06
12 | COc1cc(C(=O)NS(C)(=O)=O)ccc1-c1cnc(Oc2c(C)cccc2Cl)c(Cl)c1 [Example 327, 4-(5-chloro-6-(2-chloro-6-methylphenoxy)-3-pyridinyl)-3-methoxy-N-(methylsulfonyl)benzamide] | 7.08
13 | COc1cc(C(=O)NS(C)(=O)=O)ccc1-c1cnc(Oc2cc(C)c(Cl)c(C)c2)c(Cl)c1 [Example 364, 4-(5-chloro-6-(4-chloro-3,5-dimethylphenoxy)-3-pyridinyl)-3-methoxy-N-(methylsulfonyl)benzamide] | 7.19
14 | Cc1cc(C(=O)NS(C)(=O)=O)c(F)cc1-c1cnc(Oc2ccc(Cl)cc2C(F)(F)F)c(Cl)c1 [Example 679, 4-(5-chloro-6-(4-chloro-2-(trifluoromethyl)phenoxy)-3-pyridinyl)-2-fluoro-5-methyl-N-(methylsulfonyl)benzamide] | 7.06
15 | Cc1cc(C(=O)NS(C)(=O)=O)c(F)cc1-c1cnc(Oc2ccc(C(F)(F)F)c(F)c2)c(Cl)c1 [Example 671, 4-(5-chloro-6-(3-fluoro-4-(trifluoromethyl)phenoxy)-3-pyridinyl)-2-fluoro-5-methyl-N-(methylsulfonyl)benzamide] | 6.91
16 | Cc1cc(C(=O)NS(C)(=O)=O)c(F)cc1-c1cnc(OCCC2CC2)c(Cl)c1 [Example 683, 4-(5-chloro-6-(2-cyclopropylethoxy)-3-pyridinyl)-2-fluoro-5-methyl-N-(methylsulfonyl)benzamide] | 6.95
17 | COc1cc(C(=O)NS(C)(=O)=O)ccc1-c1cnc(N2CCC[C@H]2C(C)C)c(Cl)c1 [Example 355, 4-(5-chloro-6-((2S)-2-(1-methylethyl)-1-pyrrolidinyl)-3-pyridinyl)-3-methoxy-N-(methylsulfonyl)benzamide] | 7.06
18 | COc1cc(C(=O)NS(C)(=O)=O)ccc1-c1cnc(Oc2c(Cl)cc(C)cc2Cl)c(C#N)c1 [Example 693, 4-(5-cyano-6-(2,6-dichloro-4-methylphenoxy)-3-pyridinyl)-3-methoxy-N-(methylsulfonyl)benzamide] | 7.66
19 | C[C@@H](Oc1ncc(-c2cc(F)c(C(=O)NS(C)(=O)=O)cc2F)cc1Cl)c1ccc(F)cc1F [Example 574, 4-(5-chloro-6-((1R)-1-(2,4-difluorophenyl)ethoxy)-3-pyridinyl)-2,5-difluoro-N-(methylsulfonyl)benzamide] | 7.05
20 | CS(=O)(=O)NC(=O)c1cc(F)c(-c2cnc(Oc3c(Cl)cc(Cl)cc3Cl)c(Cl)c2)cc1F [Example 568, 4-(5-chloro-6-(2,4,6-trichlorophenoxy)-3-pyridinyl)-2,5-difluoro-N-(methylsulfonyl)benzamide] | 7.31
21 | Cc1cc(Oc2ncc(-c3ccc(C(=O)NS(C)(=O)=O)cc3OC3COC3)cc2Cl)ccc1Cl [Example 413, 4-(5-chloro-6-(4-chloro-3-methylphenoxy)-3-pyridinyl)-N-(methylsulfonyl)-3-(3-oxetanyloxy)benzamide] | 7.34
22 | Cc1ccc(Oc2ncc(-c3cc(F)c(C(=O)NS(C)(=O)=O)cc3F)cc2Cl)c(F)c1F [Example 569, 4-(5-chloro-6-(2,3-difluoro-4-methylphenoxy)-3-pyridinyl)-2,5-difluoro-N-(methylsulfonyl)benzamide] | 7.22
23 | COc1cc(C(=O)NS(C)(=O)=O)ccc1-c1cnc(Oc2cc(Cl)cc(OC(F)(F)F)c2)c(Cl)c1 [Example 372, 4-(5-chloro-6-(3-chloro-5-(trifluoromethoxy)phenoxy)-3-pyridinyl)-3-methoxy-N-(methylsulfonyl)benzamide] | 7.30

same assay, conditions: in-vitro Nav 1.7 PX data

Row | SMILES | pIC50
24 | COc1cc(C(=O)NS(C)(=O)=O)c(F)cc1-c1cnc(OCc2nc3ccccc3s2)c(Cl)c1 [Example 708, 4-(6-(1,3-benzothiazol-2-ylmethoxy)-5-chloro-3-pyridinyl)-2-fluoro-5-methoxy-N-(methylsulfonyl)benzamide] | 7.49
25 | Cc1cc(C(=O)NS(C)(=O)=O)c(F)cc1-c1cnc(O[C@@H](C)c2nc3ccccc3s2)c(Cl)c1 [Example 710, 4-(6-((1S)-1-(1,3-benzothiazol-2-yl)ethoxy)-5-chloro-3-pyridinyl)-2-fluoro-5-methyl-N-(methylsulfonyl)benzamide] | 7.06
26 | COc1cc(C(=O)NS(C)(=O)=O)c(F)cc1-c1cnc(SCc2cc(F)ccc2F)c(Cl)c1 [Example 730, 4-(5-chloro-6-((2,5-difluorobenzyl)sulfanyl)-3-pyridinyl)-2-fluoro-5-methoxy-N-(methylsulfonyl)benzamide] | 7.23
27 | COc1cc(C(=O)NS(C)(=O)=O)c(F)cc1-c1cnc(N[C@@H]2CC23CCCC3)c(Cl)c1 [Example 720, 4-(5-chloro-6-((1R)-spiro[2.4]hept-1-ylamino)-3-pyridinyl)-2-fluoro-5-methoxy-N-(methylsulfonyl)benzamide, 4-(5-chloro-6-((1S)-spiro[2.4]hept-1-ylamino)-3-pyridinyl)-2-fluoro-5-methoxy-N-(methylsulfonyl)benzamide] | 7.07
28 | COc1cc(C(=O)NS(C)(=O)=O)c(F)cc1-c1cnc(Oc2ccc3ccccc3c2Cl)c(Cl)c1 [Example 717, 4-(5-chloro-6-((1-chloro-2-naphthalenyl)oxy)-3-pyridinyl)-2-fluoro-5-methoxy-N-(methylsulfonyl)benzamide] | 7.00
29 | COc1cc(C(=O)NS(C)(=O)=O)c(F)cc1-c1cnc(OCC2(C)CCCCC2)c(Cl)c1 [Example 714, 4-(5-chloro-6-((1-methylcyclohexyl)methoxy)-3-pyridinyl)-2-fluoro-5-methoxy-N-(methylsulfonyl)benzamide] | 7.01
30 | Cc1cc(Cl)cc(Cl)c1Oc1ncc(-c2ccc(C(=O)NS(C)(=O)=O)cc2Cl)cc1Cl [Example 776, 3-chloro-4-(5-chloro-6-(2,4-dichloro-6-methylphenoxy)-3-pyridinyl)-N-(methylsulfonyl)benzamide] | 7.46
31 | COc1cc(C(=O)NS(C)(=O)=O)c(F)cc1-c1cnc(O[C@H](C)C2CCC2)c(Cl)c1 (single isomer, unassigned) [Example 769] | 7.30
32 | COc1cc(C(=O)NS(C)(=O)=O)c(F)cc1-c1cnc(NCC2CC(C)(C)C2)c(Cl)c1 [Example 723, 4-(5-chloro-6-(((3,3-dimethylcyclobutyl)methyl)amino)-3-pyridinyl)-2-fluoro-5-methoxy-N-(methylsulfonyl)benzamide] | 7.13
33 | COc1cc(C(=O)NS(C)(=O)=O)c(F)cc1-c1cnc(Sc2cc(C)cc(C)c2)c(Cl)c1 [Example 729, 4-(5-chloro-6-((3,5-dimethylphenyl)sulfanyl)-3-pyridinyl)-2-fluoro-5-methoxy-N-(methylsulfonyl)benzamide] | 7.16
34 | Cc1cc(C(=O)NS(C)(=O)=O)c(F)cc1-c1cnc(Oc2cc(Cl)cc(Cl)c2)c(C(F)F)c1 [Example 823, 4-(6-(3,5-Dichlorophenoxy)-5-(Difluoromethyl)Pyridin-3-yl)-2-Fluoro-5-Methyl-N-(Methyl Sulfonyl)Benzamide] | 6.75
35 | COc1cc(C(=O)NS(C)(=O)=O)c(F)cc1-c1cnc(O[C@@H]2CC[C@@H]2C)c(Cl)c1 [Example 770, 4-(5-chloro-6-(((1R,2S)-2-methylcyclobutyl)oxy)-3-pyridinyl)-2-fluoro-5-methoxy-N-(methylsulfonyl)benzamide] | 6.96
36 | COc1cc(C(=O)NS(C)(=O)=O)c(F)cc1-c1cnc(O[C@H](C)c2ccccc2)c(Cl)c1 [Example 749, 4-(5-chloro-6-((1R)-1-phenylethoxy)-3-pyridinyl)-2-fluoro-5-methoxy-N-(methylsulfonyl)benzamide] | 7.03
37 | COc1ncc(F)cc1-c1cc(-c2cc(F)c(C(=O)NS(C)(=O)=O)cc2F)cnc1OCC(C)C [Example 837, 2,5-Difluoro-4-(5′-Fluoro-2′-Methoxy-2-(2-Methylpropoxy)-3,3′-Bipyridin-5-yl)-N-(Methylsulfonyl)Benzamide] | 6.09
